# In ChEMBL document CHEMBL4665813, “Antifungal polybrominated proxyphylline derivative induces Candida albicans calcineurin stress response in Galleria mellonella” (Bioorg Med Chem Lett, 2020):
# Active and inactive are the calls of the source. The rule behind the calls is not given here.
# Experiments:
# Candida albicans [1] = assay: Induction of necrosis in Candida albicans by flow cytometry analysis; format: functional
# Candida albicans [2] = assay: Induction of apoptosis in Candida albicans at sub-MIC; format: functional, organism-based
# Candida albicans [3] = assay: Induction of cell membrane permeabilization in Candida albicans by flow cytometry analysis; format: functional, organism-based
# Candida albicans [4] = assay: Reduction in Candida albicans SC5314 adhesion to epithelium expressing wild-type SAP9/10 at 5 uM; format: functional, organism-based
# Candida albicans [5] = assay: Reduction in Candida albicans adhesion to epithelium expressing SAP9/10 mutant relative to control; format: functional; parameters: scale not given: the % may be the effect or the level left
# Candida albicans [6] = assay: Induction of apoptosis in wild type Candida albicans SC5314 at 20 uM; format: functional
# [7] = Toxicity in Galleria mellonella infected with Candida albicans harboring cnb1delta/CNB1 assessed as effect on melanization at 0.64 microg/mg pre-treated with compound for 1 hr followed by fungal infection by hematoxylin and eosin staining based analysis; settings: dose 0.64 µg/mg
# Candida albicans [8] = assay: Antibiofilm activity against Candida albicans at 5 to 20 uM; format: functional, organism-based; settings: dose microM 5-20
# Vero [9] = assay: Inhibition of calcineurin in Candida albicans harboring sap9delta mutant assessed as change in CNB1 expression measured during invasion of African green monkey Vero cells at 5 uM after 18 hrs by RT-qPCR analysis (reference value: -4.39)
# [10] = Toxicity in Galleria mellonella infected with Candida albicans harboring cnb1delta/CNB1 assessed as formation of nodules at 0.64 microg/mg infected with fungi followed by compound treatment for 1 hr by hematoxylin and eosin staining based analysis; settings: dose 0.64 µg/mg
# Candida albicans [11] = assay: Inhibition of calcineurin catalytic activity in Candida albicans at 5 uM
# Candida albicans [12] = assay: Reduction in Candida albicans SC5314 adhesion to epithelium expressing wild-type SAP9/10 at 20 uM; format: functional, organism-based
# [13] = Toxicity in Galleria mellonella infected with Candida albicans harboring cnb1delta/CNB1 assessed as effect on haemocyte aggregation at 0.64 microg/mg pre-treated with compound for 1 hr followed by fungal infection by hematoxylin and eosin staining based analysis
# Vero [14] = assay: Inhibition of calcineurin in Candida albicans harboring sap9/10delta mutant assessed as change in CNB1 expression measured during invasion of African green monkey Vero cells at 5 uM after 18 hrs by RT-qPCR analysis (reference value: -1.67)
# Candida albicans [15] = assay: Induction of apoptosis in Candida albicans harboring cnb1delta mutant at 20 uM; format: functional, organism-based
# Candida albicans [16] = assay: Antifungal activity against Candida albicans CAI4 infected in Galleria mellonella larvae assessed as increase in larvae survival at 0.64 ug/mg measured within 5 days; format: functional, organism-based; settings: time 5.0 day
# Vero [17] = assay: Inhibition of calcineurin in Candida albicans harboring sap9/10delta mutant assessed as change in CNB1 expression measured during invasion of African green monkey Vero cells at 5 uM after 8 hrs by RT-qPCR analysis relative to control
# Candida albicans [18] = assay: Decrease in chitin level in Candida albicans harboring cnb1delta/CNB1 mutant by measuring staining index at 20 uM after 18 hrs by calcofluor White staining based flow cytometry analysis; format: functional
# [19] = Toxicity in Galleria mellonella infected with Candida albicans CAI4 assessed as haemocyte aggregation in tracheal walls at 0.64 microg/mg infected with fungi followed by compound treatment for 1 hr by hematoxylin and eosin staining based analysis; settings: dose 0.64 µg/mg
# Candida albicans [20] = assay: Antifungal activity against Candida albicans harboring cnb1delta/CNB1 mutant infected in Galleria mellonella larvae assessed as increase in larvae survival at 0.64 ug/mg measured within 5 days; format: functional, organism-based; settings: dose 0.64 µg/mg, time 5.0 day
# Vero [21] = assay: Inhibition of calcineurin in Candida albicans CAI4 assessed as change in CNB1 expression measured during invasion of African green monkey Vero cells at 5 uM after 18 hrs by RT-qPCR analysis (reference value: -3.66); format: cell-based
# [22] = Inhibition of calcineurin phosphatase activity (unknown origin); parameters: species or system Homo sapiens
# [23] = Inhibition of calcineurin phosphatase activity in human Jurkat cells by Western blot analysis; format: cell-based
structure (smiles),measurement,setting,value
CC(Cn1cnc2c1c(=O)n(C)c(=O)n2C)OCc1cn(CCCn2nc3c(Br)c(Br)c(Br)c(Br)c3n2)nn1 (stereo not drawn),Activity,Candida albicans [1],Dose-dependent effect
same,Activity,Candida albicans [2],Active
same,Activity,Candida albicans [3],Dose-dependent effect
same,Activity,Candida albicans [4],inactive
same,Activity,Candida albicans [5],100%
same,Activity,Candida albicans [6],Active
same,Activity,[7],Non-Toxic
same,Activity,Candida albicans [8],Active
same,fold change (FC),Vero [9],0.24
same,Activity,[10],Non-Toxic
same,inhibition,Candida albicans [11],Active
same,Activity,Candida albicans [12],Active
same,Activity,[13],Non-Toxic
same,fold change (FC),Vero [14],-4.52
same,Activity,Candida albicans [15],Active
same,Activity,Candida albicans [16],Active
same,fold change (FC),Vero [17],-2.38
same,Activity,Candida albicans [18],Active
same,Activity,[19],Toxic
same,Activity,Candida albicans [20],Active
same,fold change (FC),Vero [21],-2.98
C=CC[C@@H]1/C=C(\C)C[C@H](C)C[C@H](OC)[C@H]2O[C@@](O)(C(=O)C(=O)N3CCCC[C@H]3C(=O)O[C@H](/C(C)=C/[C@@H]3CC[C@@H](O)[C@H](OC)C3)[C@H](C)[C@@H](O)CC1=O)[C@H](C)C[C@@H]2OC [TACROLIMUS ANHYDROUS],IC50,[22],0.4 nM
same,IC50,[23],2 nM
